Measured values published in ChEMBL document CHEMBL1914411, “Synthesis of lipophilic dimeric C-7/C-7-linked ciprofloxacin and C-6/C-6-linked levofloxacin derivatives. Versatile in vitro biological evaluations of monomeric and dimeric fluoroquinolone derivatives as potential antitumor, antibacterial or antimycobacterial agents” (Eur J Med Chem, 2011).
Values after ≈ are worked out from the molar mass of the structure shown. Active and inactive are the calls of the source. How the calls were made is not given here.

Tests used:
[1] = test system: Mycobacterium tuberculosis; experiment: Antimycobacterial activity against Mycobacterium tuberculosis H37Rv after 6 days by MTT colorimetric microassay; format: functional, organism-based; details: 144 h
[2] = test system: Mycobacterium tuberculosis; experiment: Antimycobacterial activity against Mycobacterium tuberculosis H37Rv assessed as growth inhibition at 10 uM after 6 days by MTT colorimetric microassay; format: functional; details: 144 h, read-out: GI
[3] = test system: Mycobacterium tuberculosis; experiment: Antimycobacterial activity against Mycobacterium tuberculosis H37Rv assessed as growth inhibition at 1 uM after 6 days by MTT colorimetric microassay; format: functional; details: 144 h, read-out: GI
[4] = test system: Mycobacterium tuberculosis; experiment: Antimycobacterial activity against Mycobacterium tuberculosis H37Rv assessed as growth inhibition at 0.1 uM after 6 days by MTT colorimetric microassay; format: functional, organism-based
[5] = Antiproliferative activity against human U373MG cells after 120 hrs by MTT asasy; format: functional, cell-based, U-373MG ATCC; details: U373 MG
[6] = test system: MCF7; experiment: Antiproliferative activity against human MCF7 cells after 120 hrs by MTT asasy; format: functional, cell-based; details: MCF7, 120 h
[7] = test system: Staphylococcus aureus; experiment: Antimicrobial activity against Staphylococcus aureus CIP 4.83 after 18 to 24 hrs by broth microdilution method; format: functional
[8] = test system: Enterococcus hirae; experiment: Antimicrobial activity against Enterococcus hirae CIP 5855 after 18 to 24 hrs by broth microdilution method; format: functional
[9] = test system: Pseudomonas aeruginosa; experiment: Antimicrobial activity against Pseudomonas aeruginosa CIP 82.118 after 18 to 24 hrs by broth microdilution method; format: functional
[10] = test system: Escherichia coli; experiment: Antimicrobial activity against Escherichia coli CIP 53126 after 18 to 24 hrs by broth microdilution method; format: functional
[11] = test system: Staphylococcus aureus; experiment: Antimicrobial activity against methicillin-resistant Staphylococcus aureus ATCC 33591 after 18 to 24 hrs by broth microdilution method; format: functional
[12] = test system: Staphylococcus aureus; experiment: Antimicrobial activity against methicillin-resistant Staphylococcus aureus ATCC 33592 after 18 to 24 hrs by broth microdilution method; format: functional
[13] = test system: Staphylococcus aureus; experiment: Antimicrobial activity against multidrug-resistant Staphylococcus aureus isolate 1 after 18 to 24 hrs by broth microdilution method; format: functional
[14] = test system: Staphylococcus aureus; experiment: Antimicrobial activity against multidrug-resistant Staphylococcus aureus isolate 2 after 18 to 24 hrs by broth microdilution method; format: functional
[15] = Solubility of compound in cell medium at 20 uM at 37 degC after 24 hrs; format: physicochemical
[16] = test system: Staphylococcus aureus; experiment: Ratio of ciprofloxacin MIC to compound MIC for multidrug-resistant Staphylococcus aureus isolate 1; format: functional
[17] = test system: Staphylococcus aureus; experiment: Ratio of ciprofloxacin MIC to compound MIC for multidrug-resistant Staphylococcus aureus isolate 2; format: functional

## CCCC(=O)OCOC(=O)c1cn2c3c(c(N4CCN(C)CC4)c(F)cc3c1=O)OC[C@@H]2C
[1]
  IC50: 1.3 µM
  MIC: 2.5 µM (≈ 1.15 µg/mL)
[2]
  inhibition of growth at 10 µM: > 95%
[3]
  inhibition of growth at 1 µM: 74%
[4]
  growth inhibition (GI): inactive

## O=C(O)c1cn(C2CC2)c2cc(N3CCN(C(=O)CCCCCCCCCCCCC(=O)N4CCN(c5cc6c(cc5F)c(=O)c(C(=O)O)cn6C5CC5)CC4)CC3)c(F)cc2c1=O
[5]
  IC50: 5 µM
[6]
  IC50: 5 µM
[7]
  MBC: 1.9 µM (≈ 1.68 µg/mL)
  MIC: ≤ 0.12 µM
[8]
  MBC: 500 µM (≈ 443 µg/mL)
  MIC: 125 µM (≈ 111 µg/mL)
[9]
  MBC: 250 µM (≈ 221 µg/mL)
  MIC: 62.5 µM (≈ 55.3 µg/mL)
[10]
  MBC: 500 µM (≈ 443 µg/mL)
  MIC: 62.5 µM (≈ 55.3 µg/mL)
[11]
  MBC: 3.9 µM (≈ 3.45 µg/mL)
  MIC: 0.06 µM (≈ 0.0531 µg/mL)
[12]
  MBC: 0.97 µM (≈ 0.858 µg/mL)
  MIC: 0.12 µM (≈ 0.106 µg/mL)
[13]
  MBC: 500 µM (≈ 443 µg/mL)
  MIC: 7.8 µM (≈ 6.9 µg/mL)
[14]
  MBC: 15.6 µM (≈ 13.8 µg/mL)
  MIC: 7.8 µM (≈ 6.9 µg/mL)
[4]
  growth inhibition (GI): inactive

## C[C@H]1COc2c(N3CCN(C)CC3)c(F)cc3c(=O)c(C(=O)NCCCCCCCCCCNC(=O)c4cn5c6c(c(N7CCN(C)CC7)c(F)cc6c4=O)OC[C@@H]5C)cn1c23
[7]
  MBC: 7.8 µM (≈ 6.7 µg/mL)
  MIC: 7.8 µM (≈ 6.7 µg/mL)
[8]
  MBC: 62.5 µM (≈ 53.7 µg/mL)
  MIC: 31.2 µM (≈ 26.8 µg/mL)
[9]
  MBC: 62.5 µM (≈ 53.7 µg/mL)
  MIC: 31.2 µM (≈ 26.8 µg/mL)
[10]
  MBC: ≤ 0.97 µM
  MIC: ≤ 0.97 µM
[1]
  IC50: 2.4 µM
  MIC: 5 µM (≈ 4.3 µg/mL)
[2]
  inhibition of growth at 10 µM: 60%
[4]
  growth inhibition (GI): inactive
[15]
  solubility: Insoluble

## CCCCCCCCCC(=O)N1CCN(c2cc3c(cc2F)c(=O)c(C(=O)O)cn3C2CC2)CC1
[5]
  IC50: 5 µM
[7]
  MBC: 62.5 µM (≈ 30.4 µg/mL)
  MIC: 7.8 µM (≈ 3.79 µg/mL)
[8]
  MBC: 15.6 µM (≈ 7.58 µg/mL)
  MIC: 15.6 µM (≈ 7.58 µg/mL)
[9]
  MBC: 250 µM (≈ 121 µg/mL)
  MIC: 125 µM (≈ 60.7 µg/mL)
[10]
  MBC: 500 µM (≈ 243 µg/mL)
  MIC: 125 µM (≈ 60.7 µg/mL)
[2]
  inhibition of growth at 10 µM: > 95%
[3]
  inhibition of growth at 1 µM: 20%
[4]
  growth inhibition (GI): inactive

## CCCC(=O)OCC(=O)N1CCN(c2cc3c(cc2F)c(=O)c(C(=O)O)cn3C2CC2)CC1
[7]
  MBC: ≤ 0.48 µM
  MIC: ≤ 0.24 µM
[8]
  MBC: ≤ 0.97 µM
  MIC: ≤ 0.97 µM
[9]
  MBC: 250 µM (≈ 115 µg/mL)
  MIC: 62.5 µM (≈ 28.7 µg/mL)
[10]
  MBC: 31.2 µM (≈ 14.3 µg/mL)
  MIC: 31.2 µM (≈ 14.3 µg/mL)
[11]
  MBC: 0.97 µM (≈ 0.446 µg/mL)
  MIC: 0.48 µM (≈ 0.221 µg/mL)
[12]
  MBC: 0.12 µM (≈ 0.0551 µg/mL)
  MIC: 0.06 µM (≈ 0.0276 µg/mL)
[13]
  MBC: 62.5 µM (≈ 28.7 µg/mL)
  MIC: 15.6 µM (≈ 7.17 µg/mL)
[14]
  MBC: 15.6 µM (≈ 7.17 µg/mL)
  MIC: 15.6 µM (≈ 7.17 µg/mL)
[16]
  Ratio: 2
[17]
  Ratio: 2
[4]
  growth inhibition (GI): inactive

## CCCCCCCCCCCC(=O)N1CCN(c2cc3c(cc2F)c(=O)c(C(=O)O)cn3C2CC2)CC1
[7]
  MBC: 7.8 µM (≈ 4.01 µg/mL)
  MIC: 3.9 µM (≈ 2 µg/mL)
[8]
  MBC: 7.8 µM (≈ 4.01 µg/mL)
  MIC: 7.8 µM (≈ 4.01 µg/mL)
[9]
  MBC: 250 µM (≈ 128 µg/mL)
  MIC: 62.5 µM (≈ 32.1 µg/mL)
[10]
  MBC: 7.8 µM (≈ 4.01 µg/mL)
  MIC: 7.8 µM (≈ 4.01 µg/mL)
[2]
  inhibition of growth at 10 µM: > 95%
[3]
  inhibition of growth at 1 µM: 20%
[4]
  growth inhibition (GI): inactive

## C[C@H]1COc2c(N3CCN(C)CC3)c(F)cc3c(=O)c(C(=O)NCCCCCCNC(=O)c4cn5c6c(c(N7CCN(C)CC7)c(F)cc6c4=O)OC[C@@H]5C)cn1c23
[7]
  MBC: 500 µM (≈ 401 µg/mL)
  MIC: 125 µM (≈ 100 µg/mL)
[8]
  MBC: 125 µM (≈ 100 µg/mL)
  MIC: 125 µM (≈ 100 µg/mL)
[9]
  MBC: 250 µM (≈ 201 µg/mL)
  MIC: 62.5 µM (≈ 50.2 µg/mL)
[10]
  MBC: 62.5 µM (≈ 50.2 µg/mL)
  MIC: 62.5 µM (≈ 50.2 µg/mL)
[1]
  MIC: > 10 µM
[2]
  inhibition of growth at 10 µM: 60%
[4]
  growth inhibition (GI): inactive

## CCCCCCCCCCNC(=O)c1cn2c3c(c(N4CCN(C)CC4)c(F)cc3c1=O)OC[C@@H]2C
[7]
  MBC: 7.8 µM (≈ 3.91 µg/mL)
  MIC: 7.8 µM (≈ 3.91 µg/mL)
[8]
  MBC: 15.6 µM (≈ 7.81 µg/mL)
  MIC: 7.8 µM (≈ 3.91 µg/mL)
[9]
  MBC: 250 µM (≈ 125 µg/mL)
  MIC: 62.5 µM (≈ 31.3 µg/mL)
[10]
  MBC: 500 µM (≈ 250 µg/mL)
  MIC: 125 µM (≈ 62.6 µg/mL)
[1]
  IC50: 5.8 µM
  MIC: 10 µM (≈ 5.01 µg/mL)
[2]
  inhibition of growth at 10 µM: > 95%
[3]
  inhibition of growth at 1 µM: 5%
[4]
  growth inhibition (GI): inactive

## CCCCCCCC(=O)OCOC(=O)c1cn2c3c(c(N4CCN(C)CC4)c(F)cc3c1=O)OC[C@@H]2C
[1]
  IC50: 1.3 µM
  MIC: 2.5 µM (≈ 1.29 µg/mL)
[2]
  inhibition of growth at 10 µM: > 95%
[3]
  inhibition of growth at 1 µM: 74%
[4]
  growth inhibition (GI): inactive

## O=C(CCCCCCCCCCCCC(=O)OCN1CCN(c2cc3c(cc2F)c(=O)c(C(=O)O)cn3C2CC2)CC1)OCN1CCN(c2cc3c(cc2F)c(=O)c(C(=O)O)cn3C2CC2)CC1
[5]
  IC50: 3 µM
[6]
  IC50: 9 µM
[7]
  MBC: ≤ 0.97 µM
  MIC: ≤ 0.97 µM
[8]
  MBC: 15.6 µM (≈ 14.7 µg/mL)
  MIC: 15.6 µM (≈ 14.7 µg/mL)
[9]
  MBC: 125 µM (≈ 118 µg/mL)
  MIC: 62.5 µM (≈ 59.1 µg/mL)
[10]
  MBC: 62.5 µM (≈ 59.1 µg/mL)
  MIC: 31.2 µM (≈ 29.5 µg/mL)
[11]
  MBC: 3.9 µM (≈ 3.69 µg/mL)
  MIC: 0.97 µM (≈ 0.917 µg/mL)
[12]
  MBC: 0.48 µM (≈ 0.454 µg/mL)
[13]
  MBC: 250 µM (≈ 236 µg/mL)
  MIC: 62.5 µM (≈ 59.1 µg/mL)
[14]
  MBC: 62.5 µM (≈ 59.1 µg/mL)
  MIC: 31.2 µM (≈ 29.5 µg/mL)
[2]
  inhibition of growth at 10 µM: 87%
[4]
  growth inhibition (GI): inactive
